Measurements as given in patent publication US20160108381A1, “DNA POLYMERASES AND MUTANTS THEREOF” (LIFE TECHNOLOGIES CORPORATION, priority 2001, published 2016).

Columns and labels:
[1] = biological target: T1, Clostridium thermosulfurogenes DNA polymerase, N-terminal His6 tag (Cth-His), SEQ ID NO:15 (Thermoanaerobacterium thermosulfurigenes, UniProt Q6X9R5); assay: Steady-state kinetics, DNA- and RNA-dependent polymerase activity
T1 sequence (Q6X9R5 with tags, fused parts or gaps): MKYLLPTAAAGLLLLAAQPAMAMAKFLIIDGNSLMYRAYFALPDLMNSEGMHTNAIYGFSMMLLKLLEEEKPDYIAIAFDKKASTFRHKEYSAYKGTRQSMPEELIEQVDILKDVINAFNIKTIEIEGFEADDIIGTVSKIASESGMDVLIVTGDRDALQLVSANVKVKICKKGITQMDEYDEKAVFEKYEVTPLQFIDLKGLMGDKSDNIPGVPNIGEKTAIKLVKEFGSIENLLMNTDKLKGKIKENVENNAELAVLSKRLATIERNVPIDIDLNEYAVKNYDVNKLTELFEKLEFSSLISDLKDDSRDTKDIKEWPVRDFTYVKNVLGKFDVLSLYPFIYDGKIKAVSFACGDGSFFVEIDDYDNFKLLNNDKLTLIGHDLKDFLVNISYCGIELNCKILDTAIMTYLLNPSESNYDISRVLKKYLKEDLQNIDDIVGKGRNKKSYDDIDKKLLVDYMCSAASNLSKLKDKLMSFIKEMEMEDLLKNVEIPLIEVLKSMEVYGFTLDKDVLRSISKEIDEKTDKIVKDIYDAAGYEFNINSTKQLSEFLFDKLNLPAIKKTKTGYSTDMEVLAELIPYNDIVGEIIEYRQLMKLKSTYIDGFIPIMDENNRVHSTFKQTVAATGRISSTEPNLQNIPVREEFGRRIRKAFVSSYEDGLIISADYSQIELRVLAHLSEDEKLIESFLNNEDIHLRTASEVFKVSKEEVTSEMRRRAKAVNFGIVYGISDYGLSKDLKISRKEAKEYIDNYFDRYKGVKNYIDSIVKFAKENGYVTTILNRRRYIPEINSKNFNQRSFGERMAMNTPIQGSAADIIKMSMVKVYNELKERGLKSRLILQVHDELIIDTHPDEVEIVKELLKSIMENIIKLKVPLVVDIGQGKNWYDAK
Source text: (§1) Subcloning of genes for Cst and Cth DNA polymerases. In order to improve expression and simplify purification of Cst and Cth DNA polymerase, the genes were subcloned downstream of a T7 promoter and an amino-terminal His6 tag sequence was introduced using Gateway cloning technology (Invitrogen Corporation, Carlsbad, Calif.). The sequence of the DNA oligonucleotide used at the 5′ end of the Cst gene was: 5′-[…] ATAGAC 3′ (SEQ ID NO:37). The sequence of the DNA oligonucleotide used at the 5′ end of the Cth gene was: 5′-[…] […]-3′ (SEQ ID NO:38). The sequence of the DNA oligonucleotide used at the 3′ end of each gene was the same: 5′-[…] […] 3′ (SEQ ID NO:39). Purified pET26B plasmid DNA (Novagen Inc., Madison, Wis.) bearing the gene for Cst or Cth DNA polymerase was amplified by PCR utilizing the primers listed above and Platinum Taq HiFi DNA polymerase (Invitrogen Corporation, Carlsbad, Calif.). PCR products purified by agarose gel electrophoresis were cloned into Gateway vector pDON21 and transferred by recombination into vector pDEST17. […] Each final recombinant plasmid was transformed into the E. coli expression host BL21-AI (Invitrogen Corporation, Carlsbad, Calif.).
(§2) Purification of Cst-His and Cth-His DNA polymerases. E. coli cells (BL21AI) bearing the plasmid pDEST17 with the gene for Cst-His or Cth-His DNA polymerase were grown in 2.8-1 Fembach flasks in LB broth containing 50 μg/ml ampicillin at 37° C. After the culture reached an A590 of 1.0, expression of DNA polymerase was induced by the addition of 0.2% arabinose for 3 hr. Cells were harvested by centrifugation and stored at −70° C.
(§3) Steady-state kinetic measurements.
(§4) The assays were conducted in the presence of 1.5 mM MgCl2 at 55° C. for all enzymes except the Caldibacillus cellulovorans CompA.2 enzyme where 2 mM MgCl2 and 45° C. were used.

[2] = biological target: T2, Clostridium stercorarium DNA polymerase, N-terminal His6 tag (Cst-His), SEQ ID NO:14 (Thermoclostridium stercorarium, UniProt L7VMI6); assay: as above
T2 sequence (L7VMI6 with tags, fused parts or gaps): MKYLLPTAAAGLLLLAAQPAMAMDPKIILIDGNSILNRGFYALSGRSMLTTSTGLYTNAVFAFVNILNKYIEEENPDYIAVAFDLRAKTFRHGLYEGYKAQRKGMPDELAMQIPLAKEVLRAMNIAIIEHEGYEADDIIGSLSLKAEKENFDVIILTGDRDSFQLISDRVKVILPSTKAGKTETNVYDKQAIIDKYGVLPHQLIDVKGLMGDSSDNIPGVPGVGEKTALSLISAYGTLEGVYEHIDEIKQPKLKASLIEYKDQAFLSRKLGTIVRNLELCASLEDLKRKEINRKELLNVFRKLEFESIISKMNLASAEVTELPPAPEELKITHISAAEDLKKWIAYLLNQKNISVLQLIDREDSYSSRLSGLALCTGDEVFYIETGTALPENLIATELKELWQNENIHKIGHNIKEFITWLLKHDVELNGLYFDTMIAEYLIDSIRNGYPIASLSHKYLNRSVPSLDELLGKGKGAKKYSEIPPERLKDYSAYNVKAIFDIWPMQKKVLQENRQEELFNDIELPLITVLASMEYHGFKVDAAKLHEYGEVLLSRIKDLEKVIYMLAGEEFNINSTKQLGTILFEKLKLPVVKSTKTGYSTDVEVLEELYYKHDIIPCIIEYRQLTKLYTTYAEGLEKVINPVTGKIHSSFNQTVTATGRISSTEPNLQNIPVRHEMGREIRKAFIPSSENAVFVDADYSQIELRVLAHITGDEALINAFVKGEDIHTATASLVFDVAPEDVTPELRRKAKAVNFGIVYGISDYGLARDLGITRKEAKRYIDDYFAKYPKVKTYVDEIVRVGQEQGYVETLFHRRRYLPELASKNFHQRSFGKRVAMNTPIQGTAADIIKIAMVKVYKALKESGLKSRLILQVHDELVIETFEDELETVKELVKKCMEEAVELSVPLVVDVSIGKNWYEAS
Source text: as §1, §2, §3, §4

[3] = Table 34, RNA template, 2 mM MgCl2, 45 °C per footnote
[4] = read-out: Km RNA (dTTP), Table 34, RNA template, 2 mM MgCl2, 45 °C per footnote

`Cc1cn([C@H]2C[C@H](O)[C@@H](COP(=O)(O)OP(=O)(O)OP(=O)(O)O)O2)c(=O)[nH]c1=O` [dTTP] was tested, and the “Kcat RNA (dTTP)” value [1, 3] was 0.94 s⁻¹, the “kCAT Ratio (RNA/DNA)” value ([1]; Table 40, dTTP, 55 °C) was 0.57 and the Km [1, 4] was 68 µM. For the same compound, the “Kcat RNA (dTTP)” value [2, 3] was 19.2 s⁻¹, the “kCAT Ratio (RNA/DNA)” value ([2]; Table 40, dTTP, 55 °C) was 2.2 and the Km [2, 4] was 76 µM.
